Columns and labels:
PI3Kα (p110α/p85α) = target: T1, PI3Kα (p110α/p85α) (Homo sapiens, UniProt P42336); test: PI3Kα ADP-Glo assay; type: biochemical; conditions: 20 μM PIP2, 10 μM ATP, 30 minutes
T1 construct: GST (N); made in house; host or cells: Baculovirus-infected Sf9 cells
Description: (A) an In Vitro Assay which Determines the Ability of a Test Compound to Inhibit PI3Kα.
Activity of PI3Kα was measured using ADP-Glo assay from Promega. PI3Kα, a complex of N-terminal GST-tagged recombinant full-length human p110α (GenBank, Accession No. U79143) and N-terminal His tagged recombinant full length human p85a (GenBank Accession No. XM—043865) were co-expressed in a Baculovirus infected Sf9 cell expression system. The ADP-Glo assay was performed to measure the amount of ADP generated from ATP hydrolysis coupled with PIP2 phosphorylation by the purified recombinant PI3Kα (p110α/p85α). PI3Kα was incubated with 20 μM PIP2 substrate in the reaction buffer (50 mM HEPES, pH 7.4, 150 mM NaCl, 5 mM MgCl2, 1 mM DTT, 3 uM Naorthovanadate, 10 μM ATP and 0.5% DMSO) for 30 minutes at room temperature. The ADP generated was then detected by ADP-Glo assay from Promega, a luminescent ADP detection assay. The ADP-Glo assay is performed in two steps; first, after the kinase reaction, ADP-Glo Reagent is added to terminate the kinase reaction and deplete the remaining ATP. Second, the Kinase Detection Reagent is added to simultaneously convert ADP to ATP and allow the newly synthesized ATP to be measured using a luciferase/luciferin reaction.

[1] = tested on: HDACs (HeLa cell nuclear extracts); test: HDAC enzymatic activity, Biomol Color de Lys system; type: biochemical; conditions: 1 hour, 25° C.
Description: (E) an In Vitro Assay which Determines the Ability of a Test Compound to Inhibit HDAC Enzymatic Activity.
HDAC inhibitory activity was assessed using the Biomol Color de Lys system (AK-500, Biomol, Plymouth Meeting, Pa.). Briefly, HeLa cell nuclear extracts were used as a source of HDACs. Different concentrations of test compounds were serially diluted in dimethylsulphoxide (DMSO) and added to HeLa cell nuclear extracts in the presence of a colorimetric artificial substrate. Final assay condition contained 50 mM Tris/Cl, pH 8.0, 137 mM NaCl, 2.7 mM KCl and 1 mM MgCl2. Reactions were carried in room temperature (25° C.) for 1 hour before addition of developer for termination. Relative enzyme activity was measured in the WALLAC Victor II 1420 microplate reader as fluorescence intensity (excitation: 350-380 nm; emission: 440-460 nm). Data were analyzed using GraphPad Prism (v4.0a) with a sigmoidal dose response curve fitting for IC50 calculation.

T1 sequence (P42336 whole entry): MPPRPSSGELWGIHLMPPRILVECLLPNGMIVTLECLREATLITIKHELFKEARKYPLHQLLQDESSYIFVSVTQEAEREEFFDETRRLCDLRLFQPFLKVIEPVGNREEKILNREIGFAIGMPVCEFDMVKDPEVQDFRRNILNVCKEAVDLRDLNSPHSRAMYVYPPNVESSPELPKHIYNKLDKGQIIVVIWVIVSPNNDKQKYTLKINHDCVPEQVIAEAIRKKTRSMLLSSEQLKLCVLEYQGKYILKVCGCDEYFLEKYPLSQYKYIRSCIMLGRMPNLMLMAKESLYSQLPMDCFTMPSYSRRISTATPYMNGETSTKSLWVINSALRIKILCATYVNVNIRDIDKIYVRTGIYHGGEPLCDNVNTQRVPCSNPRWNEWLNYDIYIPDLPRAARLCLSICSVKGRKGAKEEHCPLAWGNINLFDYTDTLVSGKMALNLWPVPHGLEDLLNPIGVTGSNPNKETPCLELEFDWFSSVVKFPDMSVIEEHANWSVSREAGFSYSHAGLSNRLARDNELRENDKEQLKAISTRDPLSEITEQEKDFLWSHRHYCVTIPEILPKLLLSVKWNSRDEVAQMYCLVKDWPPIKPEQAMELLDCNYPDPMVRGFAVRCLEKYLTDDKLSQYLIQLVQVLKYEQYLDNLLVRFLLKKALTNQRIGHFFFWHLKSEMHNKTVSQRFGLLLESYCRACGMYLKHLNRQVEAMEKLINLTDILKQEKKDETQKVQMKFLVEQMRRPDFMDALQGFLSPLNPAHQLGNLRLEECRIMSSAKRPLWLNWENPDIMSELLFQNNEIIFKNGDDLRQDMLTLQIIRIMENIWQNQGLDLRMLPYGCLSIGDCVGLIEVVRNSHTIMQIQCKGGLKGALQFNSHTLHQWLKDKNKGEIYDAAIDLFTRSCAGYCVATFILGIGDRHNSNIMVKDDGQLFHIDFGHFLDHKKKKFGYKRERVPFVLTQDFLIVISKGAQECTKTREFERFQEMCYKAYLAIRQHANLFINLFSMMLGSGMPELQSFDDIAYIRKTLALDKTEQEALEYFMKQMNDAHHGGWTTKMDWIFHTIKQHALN
T1 sequence (P27986 whole entry partner): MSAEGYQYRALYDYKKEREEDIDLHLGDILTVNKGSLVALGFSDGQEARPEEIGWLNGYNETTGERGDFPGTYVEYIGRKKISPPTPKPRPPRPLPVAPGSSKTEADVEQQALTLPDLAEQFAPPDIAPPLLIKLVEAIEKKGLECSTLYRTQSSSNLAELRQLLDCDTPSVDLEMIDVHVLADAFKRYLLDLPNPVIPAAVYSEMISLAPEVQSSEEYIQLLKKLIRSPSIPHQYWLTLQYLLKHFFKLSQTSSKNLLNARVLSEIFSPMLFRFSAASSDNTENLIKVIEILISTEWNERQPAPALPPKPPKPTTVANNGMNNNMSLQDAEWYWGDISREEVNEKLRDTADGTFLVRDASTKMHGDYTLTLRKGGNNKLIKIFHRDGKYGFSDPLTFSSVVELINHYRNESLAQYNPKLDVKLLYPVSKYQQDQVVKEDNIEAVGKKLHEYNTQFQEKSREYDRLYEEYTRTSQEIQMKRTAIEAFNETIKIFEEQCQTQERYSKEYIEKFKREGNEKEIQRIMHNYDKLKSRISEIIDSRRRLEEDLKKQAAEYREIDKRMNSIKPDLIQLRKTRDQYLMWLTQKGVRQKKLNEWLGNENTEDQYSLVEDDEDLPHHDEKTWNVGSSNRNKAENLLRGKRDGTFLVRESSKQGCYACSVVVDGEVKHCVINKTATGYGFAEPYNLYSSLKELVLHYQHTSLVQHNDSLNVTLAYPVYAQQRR

IC50 (PI3Kα (p110α/p85α))	IC50 [1]	SMILES
> 10000 nM	< 100 nM	COc1ccc(Nc2nc(-c3cccc4[nH]ncc34)nc3cc(CN(C)c4ncc(C(=O)NO)cn4)sc23)cc1 [Compound 165]
> 10000 nM	< 100 nM	COc1cccc(Nc2nc(-c3cccc4[nH]ncc34)nc3cc(CN(C)c4ncc(C(=O)NO)cn4)sc23)c1 [Compound 166]
100 to 1000 nM	< 100 nM	COc1ccccc1Nc1nc(-c2cccc3[nH]ncc23)nc2cc(CN(C)c3ncc(C(=O)NO)cn3)sc12 [Compound 167]
100 to 1000 nM	< 100 nM	CN(Cc1cc2nc(-c3ccc4[nH]ccc4c3)nc(N3CCOCC3)c2s1)c1ncc(C(=O)NO)cn1 [Compound 192]
> 10000 nM	< 100 nM	CN(Cc1cc2nc(-c3ccc4c(c3)CCN4)nc(N3CCOCC3)c2s1)c1ncc(C(=O)NO)cn1 [Compound 193]
100 to 1000 nM	100 to 1000 nM	O=C(NO)c1ccc(CNCc2cc3nc(-c4cccc5[nH]ncc45)nc(N4CCOCC4)c3s2)cc1 [Compound 203]
100 to 1000 nM	100 to 1000 nM	O=C(/C=C/c1ccc(CNCc2cc3nc(-c4cccc5[nH]ncc45)nc(N4CCOCC4)c3s2)cc1)NO [Compound 204]
100 to 1000 nM	< 100 nM	CN(Cc1cc2nc(-c3ccc(N)cc3)nc(N3CCOCC3)c2s1)c1ccc(C(=O)NO)cc1 [Compound 206]
100 to 1000 nM	< 100 nM	Nc1ccc(-c2nc(N3CCOCC3)c3sc(CN4CCN(c5ncc(C(=O)NO)cn5)CC4)cc3n2)cc1 [Compound 207]
> 10000 nM	< 100 nM	Nc1ccc(-c2nc(N3CCOCC3)c3sc(CNCc4ccc(C(=O)NO)cc4)cc3n2)cc1 [Compound 209]
100 to 1000 nM	100 to 1000 nM	Nc1ccc(-c2nc(N3CCOCC3)c3sc(CNCc4ccc(/C=C/C(=O)NO)cc4)cc3n2)cc1 [Compound 210]
100 to 1000 nM	< 100 nM	CCN(Cc1cc2nc(-c3ccc(N)cc3)nc(N3CCOCC3)c2s1)c1ncc(C(=O)NO)cn1 [Compound 215]
< 100 nM	< 100 nM	O=C(/C=C/c1cccc(S(=O)(=O)Nc2cc3nc(-c4cccc5[nH]ncc45)nc(N4CCOCC4)c3s2)c1)NO [Compound 216]
< 100 nM	< 100 nM	COc1ncc(-c2nc(N3CCOCC3)c3sc(NS(=O)(=O)c4ccc(/C=C/C(=O)NO)cc4)cc3n2)cn1 [Compound 219]
< 100 nM	< 100 nM	COc1ncc(-c2nc(N3CCOCC3)c3sc(NS(=O)(=O)c4cccc(/C=C/C(=O)NO)c4)cc3n2)cn1 [Compound 220]
< 100 nM	< 100 nM	CNc1ccc(-c2nc(N3CCOCC3)c3sc(NS(=O)(=O)c4ccc(/C=C/C(=O)NO)cc4)cc3n2)cn1 [Compound 223]
< 100 nM	< 100 nM	CNc1ccc(-c2nc(N3CCOCC3)c3sc(NS(=O)(=O)c4cccc(/C=C/C(=O)NO)c4)cc3n2)cn1 [Compound 224]
< 100 nM	< 100 nM	CNc1ccc(-c2nc(N3CCOCC3)c3sc(NCCCCC(=O)NO)cc3n2)cn1 [Compound 228, N-Hydroxy-5-(2-(6-(methylamino)pyridin-3-yl)-4-morpholino-thieno[3,2-d]pyrimidin-6-ylamino)pentanamide]
< 100 nM	< 100 nM	COc1ccc(-c2nc(N3CCOCC3)c3sc(NCCCCC(=O)NO)cc3n2)cn1 [Compound 230]
< 100 nM	< 100 nM	O=C(CCCCNc1cc2nc(-c3cc(O)ccc3F)nc(N3CCOCC3)c2s1)NO [Compound 231]
< 100 nM	< 100 nM	Nc1ccc(-c2nc(N3CCOCC3)c3sc(CN(CCO)c4ncc(C(=O)NO)cn4)cc3n2)cn1 [Compound 235]
100 to 1000 nM	< 100 nM	CNc1ccc(-c2nc(N3CCOCC3)c3sc(C(C)(C)N(C)c4ncc(C(=O)NO)cn4)cc3n2)cn1 [Compound 241]
< 100 nM	100 to 1000 nM	CNc1ccc(-c2nc(N3CCOCC3)c3sc(N(C)c4ncc(C(=O)NO)cn4)cc3n2)cn1 [Compound 243]

IC50 (PI3Kα (p110α/p85α))	IC50 [1]	SMILES
< 100 nM	< 100 nM	CNc1ccc(-c2nc(N3CCOCC3)c3sc(CN(CCO)c4ncc(C(=O)NO)cn4)cc3n2)cn1 [Compound 245]
< 100 nM	< 100 nM	COc1ccc(-c2nc(N3CCOCC3)c3sc(C(C)N(C)c4ncc(C(=O)NO)cn4)cc3n2)cn1 (centres unmarked) [Compound 247, N-hydroxy-2-((1-(2-(6-methoxypyridin-3-yl)-4-morpholino-thieno[3,2-d]pyrimidin-6-yl)ethyl)(methyl)amino)pyrimidine-5-carboxamide]
< 100 nM	< 100 nM	COc1ccc(-c2nc(N3CCOCC3)c3sc(C(C)(C)Nc4ncc(C(=O)NO)cn4)cc3n2)cn1 [Compound 250, N-Hydroxy-2-(2-(2-(6-methoxypyridin-3-yl)-4-morpholino-thieno[3,2-d]pyrimidin-6-yl)propan-2-ylamino)pyrimidine-5-carboxamide]
< 100 nM	100 to 1000 nM	COc1ccc(-c2nc(N3CCOCC3)c3sc(Nc4ncc(C(=O)NO)cn4)cc3n2)cn1 [Compound 253]
100 to 1000 nM	< 100 nM	CN(Cc1cc2nc(-c3ccc(O)nc3)nc(N3CCOCC3)c2s1)c1ncc(C(=O)NO)cn1 [Compound 254]
> 10000 nM	< 100 nM	CN(Cc1cc2nc(-c3ccc(OCc4ccccc4)nc3)nc(N3CCOCC3)c2s1)c1ncc(C(=O)NO)cn1 [Compound 260]
100 to 1000 nM	< 100 nM	COc1ncc(-c2nc(N3CCOCC3)c3sc(C(C)(C)N(C)c4ncc(C(=O)NO)cn4)cc3n2)cn1 [Compound 264]
100 to 1000 nM	< 100 nM	CN(Cc1cc2nc(-c3cnc(OCc4ccccc4)nc3)nc(N3CCOCC3)c2s1)c1ncc(C(=O)NO)cn1 [Compound 266]
1000 to 10000 nM	< 100 nM	CC(C)(Nc1ncc(C(=O)NO)cn1)c1cc2nc(-c3ccc(N)cc3)nc(N3CCOCC3)c2s1 [Compound 269, 2-(2-(2-(4-Aminophenyl)-4-morpholinothieno[3,2-d]pyrimidin-6-yl)propan-2-ylamino)-N-hydroxypyrimidine-5-carboxamide]
< 100 nM	< 100 nM	CN(c1ncc(C(=O)NO)cn1)c1cc2nc(-c3ccc(N)cc3)nc(N3CCOCC3)c2s1 [Compound 272]
< 100 nM	100 to 1000 nM	Nc1ccc(-c2nc(N3CCOCC3)c3sc(Nc4ncc(C(=O)NO)cn4)cc3n2)cc1 [Compound 273]
< 100 nM	< 100 nM	Nc1ccc(-c2nc(N3CCOCC3)c3sc(CN(CCO)c4ncc(C(=O)NO)cn4)cc3n2)cc1F [Compound 277]
100 to 1000 nM	< 100 nM	CC(C)C(=O)Nc1ccc(-c2nc(N3CCOCC3)c3sc(CN(C)c4ncc(C(=O)NO)cn4)cc3n2)cc1 [Compound 286]
> 10000 nM	< 100 nM	CC(C)OC(=O)Nc1ccc(-c2nc(N3CCOCC3)c3sc(CN(C)c4ncc(C(=O)NO)cn4)cc3n2)cc1 [Compound 287]
> 10000 nM	< 100 nM	CN(Cc1cc2nc(-c3cccc(NS(C)(=O)=O)c3)nc(N3CCOCC3)c2s1)c1ncc(C(=O)NO)cn1 [Compound 288]
> 10000 nM	< 100 nM	CN(Cc1cc2nc(-c3cccc(S(=O)(=O)CCO)c3)nc(N3CCOCC3)c2s1)c1ncc(C(=O)NO)cn1 [Compound 291]
100 to 1000 nM	< 100 nM	C/C(=N/O)c1ccc(F)c(-c2nc(N3CCOCC3)c3sc(CN(C)c4ncc(C(=O)NO)cn4)cc3n2)c1 [Compound 298]
100 to 1000 nM	< 100 nM	C/C(=N/O)c1cccc(-c2nc(N3CCOCC3)c3sc(CN(C)c4ncc(C(=O)NO)cn4)cc3n2)c1 [Compound 299]
100 to 1000 nM	< 100 nM	CC(=O)c1cccc(-c2nc(N3CCOCC3)c3sc(CN(C)c4ncc(C(=O)NO)cn4)cc3n2)c1 [Compound 300]
> 10000 nM	< 100 nM	CN(Cc1cc2nc(-c3cccc(C(C)(C)O)c3)nc(N3CCOCC3)c2s1)c1ncc(C(=O)NO)cn1 [Compound 302]
100 to 1000 nM	< 100 nM	CN(Cc1cc2nc(-c3cccc(C(=O)O)c3)nc(N3CCOCC3)c2s1)c1ncc(C(=O)NO)cn1 [Compound 303]
1000 to 10000 nM	< 100 nM	CN(Cc1cc2nc(-c3cccc(C(=O)OC(C)(C)C)c3)nc(N3CCOCC3)c2s1)c1ncc(C(=O)NO)cn1 [Compound 304]
100 to 1000 nM	< 100 nM	CN(Cc1cc2nc(-c3cccc(S(N)(=O)=O)c3)nc(N3CCOCC3)c2s1)c1ncc(C(=O)NO)cn1 [Compound 305]

Source: patent US20130102595A1 (Curis, Inc., priority 2011, published 2013)
